Laboratory results from publication PMC5423977, “Safety, pharmacokinetics, and pharmacodynamics of BMS-986142, a novel reversible BTK inhibitor, in healthy participants” (European Journal of Clinical Pharmacology, 2017).

Test: Safety (adverse events), Study 2 MTX-DDI in healthy male participants
[1] = BMS-986142 350 mg QD (Days 6 and 7), n = 12
[2] = BMS-986142 350 mg QD (Days 8 to 10) + MTX 7.5 mg (Day 8) + leucovorin 15 mg (Day 9), n = 12

Protocol: This portion of the study was designed to assess the effect of BMS-986142 on the PK of MTX since MTX is used as a background therapy in RA patients and all patients will receive MTX when the phase 2 study of BMS-986142 is conducted. Eligible participants were confined to the clinical facility for the duration of treatment (15 days). Healthy participants were administered a single oral dose of 7.5 mg MTX on day 1. On day 2, participants received leucovorin (a single oral dose of 15 mg) as a preventive measure for MTX toxicity. After a washout period (days 2–5), BMS-986142 was administered on days 6–10 in 350-mg QD doses. A concomitant dose of MTX (7.5 mg) was administered on day 8, followed by leucovorin (15 mg) on day 9 (Online Resource 2). BMS-986142 was administered with 240 mL of water, and a minimum amount of additional water was permitted to allow dosing of all medications. Only healthy male participants (ages ≥18 to ≤50 years) were eligible for the MTX-DDI assessment in study 2. Other key inclusion and exclusion criteria were identical to those in study 1.
Participants were monitored for adverse events (AEs) throughout the study. Clinical laboratory tests, vital sign measurements, 12-lead ECGs, and physical examinations were performed at selected times throughout the dosing interval. Safety data was recorded in the participants’ medical records, and assessments were performed for emergent AEs or serious AEs (SAEs). For all AEs, causal relationship to the study drug was determined by an investigator.

Cc1c(-c2c(F)cc(C(N)=O)c3[nH]c4c(c23)CC[C@H](C(C)(C)O)C4)cccc1-n1c(=O)c2cccc(F)c2n(C)c1=O [BMS-986142, 6-fluoro-5-(R)-(3-(S)-(8-fluoro-1-methyl-2,4-dioxo-1,2-dihydroquinazolin-3(4H)-yl)-2-methylphenyl)-2-(S)-(2-hydroxypropan-2-yl)-2,3,4,9-tetrahydro-1H-carbazole-8-carboxamide]
2 (16.7) n (%): Total participants with an event [1] | AE SOC: Gastrointestinal Disorders [2] | AE SOC: Nervous system disorders [2] | AE: Dizziness [2] | AE: Nausea [2] | AE: Dizziness (Study 2, n = 12) | AE: Nausea (Study 2, n = 12)
4 (33.3) n (%): Total participants with an event [2] | Subjects with AEs (Study 2, n = 12)
0 n (%): AE SOC: Gastrointestinal Disorders [1] | AE SOC: General disorders and administration site conditions [1] | AE SOC: Infections and infestations [1] | AE SOC: Injury, poisoning and procedural complications [1] | AE: Anxiety [1] | AE: Arthropod Bite [1] | AE: Asthenia [1] | AE: Dizziness [1] | AE: Fatigue [1] | AE: Nausea [1] | AE: Tremor [1] | AE: Viral Infection [1] | AE: Asthenia [2] | AE: Sleep Disorder [2] | AE: Tremor [2] | AE: Cough (Study 2, n = 12) | AE: Diarrhea (Study 2, n = 12) | AE: Thermal burns (Study 2, n = 12) | AE: Upper respiratory tract infection (Study 2, n = 12)
1 (8.3) n (%): AE SOC: Nervous system disorders [1] | AE SOC: Psychiatric disorders [1] | AE: Headache [1] | AE: Sleep Disorder [1] | AE SOC: General disorders and administration site conditions [2] | AE SOC: Infections and infestations [2] | AE SOC: Injury, poisoning and procedural complications [2] | AE SOC: Psychiatric disorders [2] | AE: Anxiety [2] | AE: Arthropod Bite [2] | AE: Fatigue [2] | AE: Headache [2] | AE: Viral Infection [2] | AE: Headache/tension headache (Study 2, n = 12)
9 AEs: Number of AEs reported (Study 2, concomitant MTX and BMS-986142 (days 8–10))
2 AEs: Number of AEs reported (Study 2, BMS-986142 on days 6 and 7)
